Test results from patent publication US8367086B1, “Process and product for inhibiting or preventing bacterial infections” (S.S. Steiner, Inc., priority 2004, dated 2013).
Converted amounts (≈) assume the structure as drawn.

Key:
Test in all cases: minimum inhibitory concentration (MIC) method
Type in all cases: cell-based
B. megaterium = details: 37° C. 24 hours
Procedure: (§1) Another method of determining antimicrobial activity is to assess the Minimum inhibitory concentration (MIC) of the composition under test. […] Thereafter, increased concentrations will have a limiting effect on growth, until the concentration is reached where no growth relative to the control is observed. That point of no growth is the minimum inhibitory concentration. […] A positive control with the bacterium alone was prepared as well as an ethanol control. The tubes were incubated at 37° C. for 24 hours and growth of the bacterium was determined by observing the change in turbidity.

B. subtilis = details: 37° C. 24 hours
Procedure: as §1

S. salivarius = details: 37° C. 24 hours
Procedure: as §1

S. saprophyticus = details: Staphylococcus saprophyticus; exp 1; 37° C. 24 hours; read-out: MIC, agent alone
Procedure: as §1, with “turbidity. […] Since the filing of the original application Ser. […] Pseudomonas fluorescens, Pseudomonas aeruginosa, Proteus vulgaris, Serratia marcescens, Proteus mirabilis and Enterobacter clocae.” for “turbidity.”

MIC (B. megaterium; Priestia megaterium, exp 2, read-out: MIC, agent alone): 10 µg/mL (≈ 28.2 µM)
MIC, agent alone (B. megaterium; exp 1): 10 µg/mL (≈ 28.2 µM)
MIC (B. subtilis; Bacillus subtilis, exp 1, read-out: MIC, agent alone): > 1 µg/mL
MIC, agent alone (B. subtilis; exp 1): >1 µg/mL
MIC, agent alone (B. subtilis; exp 2): >1 µg/mL
MIC (S. salivarius; Streptococcus salivarius, exp 1, read-out: MIC, agent alone): < 10 µg/mL
MIC, agent alone (S. salivarius; exp 2): <10 µg/mL
MIC (S. saprophyticus): 1 to 10 µg/mL (≈ 2.82 to 28.2 µM)
Structure (SMILES): COc1cc(O)c(CC=C(C)C)c(O)c1C(=O)/C=C/c1ccc(O)cc1 [X, xanthohumol]
